melting point: 197 to 199 °C
SMILES: O=C1c2ccc(F)cc2C(=O)N1CCCCN1CC=C(c2c[nH]c3ccc(F)cc23)CC1

From patent US6391896B1, “3-Tetrahydropyridin-4-yl indoles for treatment of psychotic disorders” (Duphar International Research BV, priority 1998, dated 2002)
